Results reported in patent US20170081357A1, “[…] ACTIVE 17-NITROGEN SUBSTITUTED ESTRATREINTHIAZOLE DERIVATIVES AS INHIBITORS OF 17.BETA-HYDROXYSTEROID DEHYDROGENASE” (FORENDO PHARMA LTD, priority 2013, published 2017).

Experiments:
[1] = Metabolic stability assay, human liver microsome and homogenate incubations; assay type: in vitro ADME; settings: human liver homogenate or microsomes, LC/PDA/TOF-MS
Method: The in vitro metabolic stability of the compounds of the invention was determined for exemplified compounds using human liver microsome and homogenate incubations. The incubation time points used with or without appropriate cofactors were 0 min and 60 min. Samples were collected at both time points and substrates were detected using LC/PDA/TOF-MS. In vitro metabolic stability (% remaining after 60 min in human liver homogenate or microsomes) of the compounds were calculated and the results are summarized in Table 3.

[2] = target: T1, recombinant human 17β-HSD2 (Homo sapiens, UniProt P37059); experiment: Inhibition of recombinant human 17β-HSD2 (conversion of 3H-estradiol to estrone, HPLC); assay type: biochemical; settings: inhibitor 1 μM; 50 nM estradiol, 1 mM NADH, 30 min at RT
T1 construct: made in house; host or cells: Sd9 (Sf9) insect cells, baculovirus (Bac to Bac Expression System); fractionated cell extract
T1 sequence (P37059 1-387): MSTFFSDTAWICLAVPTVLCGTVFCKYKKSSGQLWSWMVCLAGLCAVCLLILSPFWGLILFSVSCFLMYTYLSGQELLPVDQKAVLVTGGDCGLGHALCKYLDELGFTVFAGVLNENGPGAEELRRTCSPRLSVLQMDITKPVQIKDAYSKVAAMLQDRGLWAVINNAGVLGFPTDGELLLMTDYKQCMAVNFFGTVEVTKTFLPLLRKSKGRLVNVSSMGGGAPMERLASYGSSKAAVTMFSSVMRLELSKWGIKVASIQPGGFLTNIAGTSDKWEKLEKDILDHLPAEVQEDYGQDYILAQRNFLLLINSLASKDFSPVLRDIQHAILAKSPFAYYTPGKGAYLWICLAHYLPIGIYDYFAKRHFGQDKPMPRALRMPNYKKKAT
Method: 17β-HSD2 production and isolation: Similarly to 17β-HSD1 the Recombinant baculovirus was generated by the “Bac to Bac Expression System” (Invitrogen). Recombinant bacmid was transfected to Sd9 insect cells using “Cellfectin Reagent” (Invitrogen). 60 h later cells were harvested and supernatant were fractionated by the following protocol: • cells were dissolved into 40 ml of A-buffer (40 mM TRIS, pH8.0, 20% glycerol, 20 μM NAD, 0.4 mM PMSF, 150 mM NaCl, 0.5% dodecyl-β-maltoside+protease inhibitor cocktail) • cells were sonicated • lysate was incubated on ice for 15 min • lysate was centrifuged 5000 rpm 15 min, +4° C. • centrifugation of the supernatant 180 000 g 30 min, +4° C. • pellet was dissolved into 8 ml of A-buffer • not resuspended material was removed by centrifugation 5000 rpm 15 min, +4° C. • the clear supernatant was divided into 100 μl aliquots and were stored frozen until determination of enzymatic activity.
The amount of 17β-HSD2 was analysed by immunoblotting and total protein concentration of each extract batch was determined.
Assay—Inhibition of recombinant human 17β-HSD2: Recombinant protein (4 μg/ml) was incubated in 20 mM KH2PO4 pH 8.5 with 50 nM estradiol (including 800 000 cpm/ml of ^3H-estradiol) and 1 mM NADH for 30 min at RT, in the presence of the potential inhibitor at concentrations 1 μM or 0.1 μM. Inhibitor stock solutions were prepared in DMSO. Final concentration of DMSO was adjusted to 1% in all samples. The enzyme reaction was stopped by addition of 10% trichloroacetic acid (final concentration). Samples were centrifuged in a microtiter plate at 4000 rpm for 10 min. Supernatants were applied to reverse phase HPLC on a Waters Symmetry C18 column, equipped with a Waters Sentry Guard column. Isocratic HPLC runs were performed at RT at a flow rate of 1 ml/min in acetonitrile:water 48:52 as running solvent. Radioactivity was monitored in the eluate by a Packard Flow Scintillation Analyzer. Total radioactivity for estrone and estradiol were determined in each sample and percent conversion of estradiol to estrone was calculated according to the following formula:
(§1) Percent inhibition was calculated flowingly: % inhibition=100−% conversion

[3] = target: T2, recombinant human 17β-HSD1 (Homo sapiens, UniProt P14061); experiment: Inhibition of recombinant human 17β-HSD1 (conversion of 3H-estrone to estradiol, HPLC); assay type: biochemical; settings: inhibitor 1 μM; 30 nM estrone, 1 mM NADPH, 30 min at RT; read-out: 17β-HDS1 Inhibition % at 1 μM
T2 construct: made in house; host or cells: Sd9 (Sf9) insect cells, baculovirus (Bac to Bac Expression System); microsomal fraction
T2 sequence (P14061 1-328): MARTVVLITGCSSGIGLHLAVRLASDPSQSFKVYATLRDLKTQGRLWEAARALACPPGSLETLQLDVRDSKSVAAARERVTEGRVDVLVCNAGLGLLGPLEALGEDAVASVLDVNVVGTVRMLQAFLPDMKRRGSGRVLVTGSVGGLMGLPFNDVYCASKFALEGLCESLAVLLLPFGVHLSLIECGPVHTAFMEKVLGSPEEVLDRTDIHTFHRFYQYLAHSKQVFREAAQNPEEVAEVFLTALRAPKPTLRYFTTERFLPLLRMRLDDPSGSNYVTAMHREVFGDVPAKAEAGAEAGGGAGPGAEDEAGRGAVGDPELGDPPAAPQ
Method: 17β-HSD1 production and isolation: Recombinant baculovirus was generated by the “Bac to Bac Expression System” (Invitrogen). Recombinant bacmid was transfected to Sd9 insect cells using “Cellfectin Reagent” (Invitrogen). 60 h later cells were harvested; the microsomal fraction was isolated as described by Puranen, T. J., Poutanen, M. H., Peltoketo, H. E., Vihko, P. T. and Vihko, R. K. (1994) Site-directed mutagenesis of the putative active site of human 17 β-hydroxysteroid dehydrogenase type 1. Biochem. J. 304: 289-293. Aliquots were stored frozen until determination of enzymatic activity.
Assay—Inhibition of recombinant human 17β-HSD1: Recombinant protein (1 μg/ml) was incubated in 20 mM KH2PO4 pH 7.4 with 30 nM estrone (including 800 000 cpm/ml of ^3H-estrone) and 1 mM NADPH for 30 min at RT, in the presence of the potential inhibitor at concentrations 1 μM or 0.1 μM. Inhibitor stock solutions were prepared in DMSO. Final concentration of DMSO was adjusted to 1% in all samples. The enzyme reaction was stopped by addition of 10% trichloroacetic acid (final concentration). Samples were centrifuged in a microtiter plate at 4000 rpm for 10 min. Supernatants were applied to reverse phase HPLC on a Waters Symmetry C18 column, equipped with a Waters Sentry Guard column. Isocratic HPLC runs were performed at RT at a flow rate of 1 ml/min in acetonitrile:water 48:52 as running solvent. Radioactivity was monitored in the eluate by a Packard Flow Scintillation Analyzer. Total radioactivity for estrone and estradiol were determined in each sample and percent conversion of estrone to estradiol was calculated according to the following formula:
as §1

SMILES | In vitro metabolic stability, % remaining after 60 min [1] | inhibition at 1 µM [2] | inhibition at 1 µM [3]
Cc1cnc(NC(=O)CC[C@@H]2C/C(=N\O)[C@@]3(C)CCC4c5cc([N+](=O)[O-])c(O)cc5CCC4C23)s1 (stereo partly drawn) [Compound 60, 3-{(13S,15R)-3-Hydroxy-2-nitro-17-[(E)-hydroxyimino]-13-methyl-7,8,9,11,12,13,14,15,16,17-decahydro-6H-cyclopenta[a]phenanthren-15-yl}-N-(5-methylthiazol-2-yl)propanamide] | 84% | – | –
Cc1cnc(NC(=O)CC[C@@H]2C/C(=N\O)[C@@]3(C)CCC4c5cc(C(C)(C)C)c(O)cc5CCC4C23)s1 (stereo partly drawn) [Compound 58, 3-{(13S,15R)-2-tert-Butyl-3-hydroxy-17-[(E)-hydroxyimino]-13-methyl-7,8,9,11,12,13,14,15,16,17-decahydro-6H-cyclopenta[a]phenanthren-15-yl}-N-(5-methylthiazol-2-yl)propanamide] | 100% | – | –
CO/N=C1\C[C@@H](CCC(=O)Nc2ncc(C)s2)C2C3CCc4cc(O)c(C(C)(C)C)cc4C3CC[C@]12C (stereo partly drawn) [Compound 76, 3-{(13S,15R)-2-tert-Butyl-3-hydroxy-17-[(E)-methoxyimino]-13-methyl-7,8,9,11,12,13,14,15,16,17-decahydro-6H-cyclopenta[a]phenanthren-15-yl}-N-(5-methylthiazol-2-yl)propanamide] | 100% | – | –
Cc1cnc(NC(=O)CC[C@@H]2C/C(=N\OCC(=O)O)[C@@]3(C)CCC4c5cc(C(C)(C)C)c(O)cc5CCC4C23)s1 (stereo partly drawn) [Compound 110, [(13S,15R)-2-tert-Butyl-3-hydroxy-13-methyl-15-[2-(5-methylthiazol-2-ylcarbamoyl)-ethyl]-6,7,8,9,11,12,13,14,15,16-decahydro-cyclopenta[a]phenanthren-(17E)-ylideneaminooxy]-acetic acid] | – | 7% | 70%
Cc1cnc(NC(=O)CC[C@@H]2C/C(=N\O)[C@@]3(C)CCC4c5ccc6ocnc6c5CCC4C23)s1 (stereo partly drawn) [Compound 114, 3-{(7aS,10R)-8-[(E)-Hydroxyimino]-7a-methyl-6,7,7a,8,9,10,10a,10b,11,12-decahydro-5bH-3-oxa-1-aza-dicyclopenta[a,i]phenathren-10-yl}-N-(5-methylthiazol-2-yl)propanamide] | – | 5% | 70%
CO/N=C1\C[C@@H](CCC(=O)Nc2ncc(C)s2)C2C3CCc4cc(OC(C)=O)ccc4C3CC[C@]12C (stereo partly drawn) [Compound 100, Acetic acid (13S,15R)-17[(E)-methoxyimino]-13-methyl-15-[2-(5-methylthiazol-2-ylcarbamoyl)-ethyl]-7,8,9,11,12,13,14,15,16,17-decahydro-6H-cyclopenta[a]phenanthren-3-yl ester] | – | 1% | 84%
Cc1cnc(NC(=O)CC[C@@H]2c3c[nH]nc3[C@@]3(C)CCC4c5cc(Br)c(O)c(Br)c5CCC4C23)s1 (stereo partly drawn) [Compound 54, 3-((6aS,10S)-1,3-dibromo-2-hydroxy-6a-methyl-4b,5,6,6a,8,10,10a,10b,11,12-decehydro-7,8-diaza-pentaleno[2,1-1]phenanthren-10-yl}-N-(5-methylthiazol-2-yl)propanamide] | – | 13% | 90%
CO/N=C1\C[C@@H](CCC(=O)Nc2ncc(C)s2)C2C3CCc4cc(OC)c(I)cc4C3CC[C@]12C (stereo partly drawn) [Compound 84, 3-{(13S,15R)-2-iodo-3-methoxy-17-[(E)-methoxyimino]-13-methyl-7,8,9,11,12,13,14,15,16,17-decahydro-6H-cyclopenta[a]phenanthren-15-yl}-N-(5-methylthiazol-2-yl)propanamide] | – | 1% | 62%
Cc1cnc(NC(=O)CC[C@@H]2c3conc3[C@@]3(C)CCC4c5cc(Br)c(O)c(Br)c5CCC4C23)s1 (some centres unmarked) [Compound 119] | – | 28% | 79%
Cc1cnc(NC(=O)CC[C@@H]2C(=C\O)/C(=N\O)[C@@]3(C)CCC4c5ccc(O)cc5CCC4C23)s1 (stereo partly drawn) [Compound 69, 3-{(13S,15S)-3-Hydroxy-17-[(Z)-hydroxyimino]-16-[1-hydroxy-meth-(E)-ylidene]-13-methyl-7,8,9,11,12,13,14,15,16,17-decahydro-6H-cyclopenta[a]phenanthren-15-yl}-N-(5-methylthiazol-2-yl)propanamide] | – | 2% | 98%
Cc1cnc(NC(=O)CC[C@@H]2C/C(=N\NC(N)=O)[C@@]3(C)CCC4c5cc(Br)c(O)c(Br)c5CCC4C23)s1 (stereo partly drawn) [Compound 113, 3-{(13S,15R)-2,4-Dibromo-3-hydroxy-17-[(E)-N-urea-imino]-13-methyl-7,8,9,11,12,13,14,15,16,17-decahydro-6H-cyclopenta[a]phenanthren-15-yl}-N-(5-methylthiazol-2-yl)propanamide] | – | 1% | 58%
Cc1cnc(NC(=O)CC[C@@H]2C(=C\O)/C(=N\O)[C@@]3(C)CCC4c5ccc(O)c(Br)c5CCC4C23)s1 (stereo partly drawn) [Compound 71, 3-{(13S,15S)-4-Bromo-3-hydroxy-17-[(Z)-hydroxyimino]-16-[1-hydroxy-meth-(E)-ylidene]-13-methyl-7,8,9,11,12,13,14,15,16,17-decahydro-6H-cyclopenta[a]phenanthren-15-yl}-N-(5-methylthiazol-2-yl)propanamide] | – | 7% | 82%
COCC/N=C1\C[C@@H](CCC(=O)Nc2ncc(C)s2)C2C3CCc4cc(O)ccc4C3CC[C@]12C (stereo partly drawn) [Compound 122, 3-{(13S,15R)-3-Hydroxy-17-[(E)-2-methoxy-ethylimino]-13-methyl-7,8,9,11,12,13,14,15,16,17-decahydro-6H-cyclopenta[a]phenanthren-15-yl}-N-(5-methylthiazol-2-yl)propionamide] | – | 5% | 94%
